# In PubChem BioAssay (NCI):
#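 Results reflect a 48-hour exposure of cells in 96-well plates to compound at five concentrations. GI50: concentration for 50% inhibition of growth. TGI: concentration producing complete growth inhibition.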
# What was measured:
# Assay in all cases: NCI anticancer screen, dose series, 48 h
# [1] = tested on: A498 renal
# [2] = tested on: LOX IMVI melanoma
# [3] = tested on: OVCAR-4 ovarian
# [4] = tested on: OVCAR-3 ovarian
# [5] = tested on: UO-31 renal
# [6] = tested on: OVCAR-5 ovarian
# [7] = tested on: OVCAR-8 ovarian
# [8] = tested on: SN12C renal
# [9] = tested on: EKVX NSCLC
# [10] = tested on: BT-549 breast
SMILES,GI50 [1] [µM],TGI [1] [µM],GI50 [2] [µM],TGI [2] [µM],GI50 [3] [µM],TGI [3] [µM],GI50 [4] [µM],TGI [4] [µM],GI50 [5] [µM],TGI [5] [µM],GI50 [6] [µM],TGI [6] [µM],GI50 [7] [µM],TGI [7] [µM],GI50 [8] [µM],TGI [8] [µM],GI50 [9] [µM],TGI [9] [µM],GI50 [10] [µM],TGI [10] [µM]
CC[O-].CC[O-].O=C([CH-]C(=O)c1ccccc1)c1ccccc1.O=C([CH-]C(=O)c1ccccc1)c1ccccc1.[Ti+4],> 100,> 100,> 100,> 100,> 100,> 100,> 100,> 100,> 100,> 100,> 100,> 100,79.4,> 100,> 100,> 100,> 100,> 100,–,–
O=C(NO)c1cnc(N2CCN(S(=O)(=O)c3ccc4ccccc4c3)CC2)nc1,0.0283,0.22,–,–,0.081,23.6,0.0955,0.386,0.0597,0.854,0.0394,10.6,0.0276,1.92,0.198,13.2,–,–,0.803,53.4
OC(c1ccccc1)c1c(-c2ccccc2)oc(-c2ccccc2)c1C(O)c1ccccc1 (configuration not stated),–,30.4,–,25.2,–,7.99,–,18.7,–,25,–,32.6,–,–,–,18.4,–,19.6,–,–
CON,–,–,> 100,> 100,> 100,> 100,> 100,> 100,> 100,> 100,> 100,> 100,> 100,> 100,> 100,> 100,> 100,> 100,> 100,> 100
CCOC(=O)C1CC/C(=C(/C#N)C(=O)OC)N1 (configuration not stated),–,> 100,–,> 100,–,> 100,–,> 100,–,> 100,–,–,–,> 100,–,> 100,–,> 100,–,–
O=C1CCC(=O)C(C(=O)CCC(=O)Nc2cccc(Cl)c2)C1 (configuration not stated),–,> 100,–,> 100,–,–,–,> 100,–,> 100,–,> 100,–,> 100,–,> 100,–,> 100,–,–
COc1ccc(-n2sc(=O)n(Cc3ccc(COC(=O)C(C)c4ccc(CC(C)C)cc4)cc3)c2=O)cc1 (configuration not stated),–,–,0.943,1.9,0.92,1.99,0.821,1.52,0.819,1.6,5.58,11.8,2.81,21.5,2.83,9.49,7.36,14.3,2.91,9.37
CN(NC(=O)CC(=O)NN(C)C(=S)c1ccc(Cl)cc1)C(=S)c1ccc(Cl)cc1,–,–,20.2,> 100,19.6,> 100,13,46.4,10.4,> 100,25.9,> 100,23.7,> 100,18.6,> 100,18.8,> 100,12.9,53
